Assay results: patent EP4696689A1, “SALT FORM AND CRYSTAL FORM OF CHIRAL HETEROCYCLIC COMPOUND HAVING HEDGEHOG PATHWAY ANTAGONIST ACTIVITY” (Suzhou Kintor Pharmaceuticals, Inc., priority 2023, dated 2024)
Like-named read-outs stand apart in the source and are kept apart here.

Key:
in vivo [1] = conditions: rat, po, 10 mg/kg
Description: Solvent A: 0.5% CMC-Na +0.2% Tween80
Preparation method: 5 g of sodium carboxymethyl cellulose (CMC-Na) was accurately weighed, 2 mL of Tween 80 was added, 998 mL of purified water was added, stirred and evenly mixed on a magnetic stirrer, and stored at room temperature.
After administration, blood was taken at different time points through orbit, and the blood samples were placed in a tube containing heparin sodium (as an anticoagulant), centrifuged by a cryocentrifuge and then stored in an environment of -80°C. An appropriate amount of plasma sample (50 µL) was taken into which (200 µL) cold acetonitrile containing the internal standard was added. The plasma protein was precipitated by centrifugation for 10 minutes. Finally, 100 µL of the supernatant was added and diluted with 100 µL of pure water and then injected into an LC-MS/MS system for analysis.
LC-MS/MS analysis method: All samples were analyzed by an LC-MS/MS system of an API 3000 mass spectrometer equipped with an Agilent 1100 series of liquid phase systems (Agilent, Japan). Column: Agilent XORBAX, XDB-C8 (50×2.1mm;3.5µm). Column temperature: room temperature, flow rate: 0.4 mL/min, total running time:7min.
For the quantitative analysis of MS/MS, the API3000 mass spectrometer is operated in the positive ESI mode with multiple reaction monitoring (MRM). All compounds and internal standards were monitored with a dwell time of 200 milliseconds. Other MS/MS parameter settings are as follows: Nebulizer gas (NEB): 12 psi, Gas curtain gas (CUR): 7 psi, Collision gas (CAD): 4 psi, Ion spray voltage: 5000V, Ion source temperature:500 °C. For the transitions of the selected ions, each analyte was tested under the optimal sensitivity clustering potential (DP) and collision energy (CE). Finally, the data were collected and processed using the SCIEX Analyst 1.5.2 data processing software system.
Preparation method: 0.1 g of sodium carboxymethyl cellulose (CMC-Na) was accurately weighed, 20 ml of purified water was added, and ultrasonic stirring was performed to dissolve it to obtain 0.5% CMC-Na.

[2] = solid state stability (XRPD, HPLC, chiral purity); assay type: physicochemical
Description: The purity test, the dynamic solubility and the stability test are tested by the Agilent 1260/1100 high performance liquid chromatograph, and the analysis conditions and chiral purity test analysis conditions of the high performance liquid chromatography test are respectively as follows.
After placing the amorphous free base and fumarate crystal form F of the compound of formula (I) at 25°C/60% RH and 40°C/75% RH for 1 week, the physical and chemical stability of the sample is detected by XRPD and HPLC (at the same time the chiral purity of the sample is tested). […] Table 4-2 Solid Stability Evaluation Summary

Gli1 Gene = test: Gli1 mRNA expression in tumor tissues (RT-qPCR), Shh signaling pathway analysis; assay type: in vivo, CB-17/SCID mice; conditions: for mRNA Expression Level of Glil Gene: tumor tissue 2 hours after last administration, GAPDH internal reference
From the text: Table 7-1 The Grouping and Drug Administration Plan
Primary tumor cells were extracted from Math1-Cre/Ptch1 ^C/C mice with spontaneous medulloblastoma and subcutaneously inoculated into CB-17/SCID mice to establish a xenograft model of medulloblastoma.
CB-17/SCID mice were subcutaneously injected with primary extracted medulloblastoma cells. After 3-4 weeks, a subset of mice developed tumors with volumes ranging from 150 to 300 mm^3.
From these mice, 25 tumor-bearing mice with uniform tumor sizes (with CV < 30%, CV = SD/Mean) were selected and randomly divided into 5 experimental groups (Vehicle, GDC-0449-10 mg/kg, Compound A-10 mg/kg, Compound A-3 mg/kg, Compound A-1 mg/kg) according to Table 2. Each group consisted of 5 mice per cage. Administration began on the day after grouping. The administration period was 3 days, with a frequency of BID. Tumor tissues were collected 2 hours after the last administration, and the mRNA expression level of the Glil gene in the tumor tissues was analyzed by RT-qPCR.
The tumor tissues were lysed by RNAiso Plius (TaKaRa, 108-95-2) to extractand RNA was then extracted using chloroform extraction and isopropanol precipitation methods. Subsequently, the mRNA level of the Glil gene was detected using a real-time fluorescence quantitative PCR instrument (ABI 7500), with GAPDH serving as the internal reference for quantitative analysis.
Experimental data in all tables are presented as "mean ± standard deviation" with error bars in figures representing standard error of the mean (SEM). Student's t-test was used to compare statistical differences in Glil gene mRNA expression levels in tumor tissues among treatment groups. All data were analyzed using GraphPad Prism 5.0. P-value <0.05 was considered statistically significant. ***, P<0.001; ##, P<0.01.
Glil is a target gene of the Hedgehog signaling pathway, and its mRNA expression level reflects the activation status of the hedgehog signaling pathway.

[3] = suspension competition experiment (thermodynamic stability of fumarate crystal forms); assay type: physicochemical; conditions: from room temperature to 50°C
Description: To study the thermodynamic stability relationship among the crystal forms of the fumarate salt, a suspension competition experiment at room temperature and 50°C is performed on the fumarate salt anhydrous crystal forms A, B, C and F. […] Table 3-1 Summary of Suspension Contention Tests

[4] = dynamic solubility in water and three biological solvents; assay type: physicochemical; conditions: 37°C, feed 5 mg/ml, read-out: S: solubility
Description: Finally, the volume is fixed with purified water.
0.17 g of sodium dihydrogen phosphate (NaH2PO4, anhydrous), 0.021 g of sodium hydroxide and 0.31 g of sodium chloride were weighed into a 50 mL volumetric flask respectively, about 48 mL of purified water was added for dissolution, the pH was adjusted to exactly 6.5 with 1M hydrochloric acid or 1M sodium hydroxide, and the volume was fixed with purified water. 0.11 g of SIF powder was then added, stirred and sonicated to completely dissolve the powder. The solution can be used only after being placed at room temperature for two hours to reach equilibrium.
0.41 mL of glacial acetic acid, 0.20 g of sodium hydroxide and 0.59 g of sodium chloride were weighed into a 50 mL volumetric flask respectively, and about 48 mL of purified water was added for dissolution, the pH was adjusted to exactly 5.0 with 1M hydrochloric acid or 1M sodium hydroxide, and the volume was fixed with purified water. 0.56 g of SIF powder was then added, stirred and sonicated to completely dissolve the powder. The solution can be used only after being placed at room temperature for two hours to reach equilibrium.
The solubility results of the two samples in SGF, FASSIT and FeSSIF are similar. […] Table 4-1 Summary of the dynamic solubility test results

[5] = hygroscopicity evaluation by dynamic vapor sorption (DVS); assay type: physicochemical
Description: The DVS curves were collected on a DVS Intrinsic from SMS (Surface Measurement Systems).The relative humidity at 25°C was corrected with the deliquescence points of LiCl, Mg (NO3)2 and KCl.

[6] = body weight of tumor-bearing mice during treatment; conditions: for Mean Body Weight at Day 0: before treatment; for Body Weight Change Rate (%) / Mean Body Weight at Dosing Endpoint: 17 days
[7] = pharmacokinetic study in mice; conditions: same dose, intragastric administration
[8] = SCID tumor-bearing mice, i.g. BID × 3 days
in vivo [9] = conditions: mouse, in vivo, po, 10 mg/kg
Description: The collected plasma samples were subjected to a protein precipitation method by using an organic reagent according to the following method to extract test article in the plasma, and the extracted sample was subjected to quantitative concentration analysis through the LC-MS/MS.
Meanwhile, an accompanying standard curve and quality control samples were prepared for quantitative analysis.
The fumarate salt form F of the compound of formula (I) Group: 50 µL of plasma at each time point was taken, 400 µL of acetonitrile was added, vortex mixing and centrifugation was performed at 10000 rpm for 10 min, and a 200 µL supernatant for LC-MS/MS analysis was taken. Meanwhile, an accompanying standard curve and quality control samples were prepared for quantitative analysis.
According to the plasma drug concentration data obtained through analysis, the main pharmacokinetic parameters were calculated according to the non-atrioventricular model by using Kinetic software (Version 5.0).

[10] = pH 1.8, simulated gastric fluid, thermodynamic from solid, SGF
[11] = pH 5, thermodynamic from solid, FeSSIF
[12] = pH 6.5, thermodynamic from solid, FaSSIF
[13] = water, thermodynamic from solid, H2O

Cc1cnc(-c2cc(N3CCc4nc(N5CCC(O)CC5)ncc4[C@H]3C)ncc2Cl)c(C)c1 [Fumarate crystal form F]
AUC(0-t) at 24 h (in vivo [1]): 14300 ng·h/mL | Cmax (in vivo [1]): 2850 ng/mL | bioavailability (in vivo [1]): 97.5% | Chiral purity (%) ([2]; 25°C/60%RH_1w): 98.6% | Purity (Area%) ([2]; 25°C/60%RH_1w): 99.7 Area% | Purity/Initial purity (%) ([2]; 25°C/60%RH_1w): 100.1% | Chiral purity (%) ([2]; 40°C/75%RH_1w): 98.6% | Purity (Area%) ([2]; 40°C/75%RH_1w): 99.6 Area% | Purity/Initial purity (%) ([2]; 40°C/75%RH_1w): 100.0% | Chiral purity (%) ([2]; Start): 98.6% | Purity (Area%) ([2]; Start): 99.6 Area% | mRNA Expression Level of Glil Gene (Gli1 Gene; 1 mg/kg i.g. BID × 3 days): 0.609 ± 0.140 | mRNA Expression Level of Glil Gene (Gli1 Gene; 3 mg/kg i.g. BID × 3 days): 0.359 ± 0.113 | mRNA Expression Level of Glil Gene (Gli1 Gene; 10 mg/kg i.g. BID × 3 days): 0.045 ± 0.035 | inhibition of Hedgehog signaling compared with the high-dose group of GDC-0449 (10 mg/kg) (Gli1 Gene; high-dose group (10 mg/kg)): significantly stronger inhibition | thermodynamic stability among anhydrous crystal forms A, B, C and F [3]: most thermodynamically stable | solubility at 1 h [4, 10]: 3600 µg/mL | solubility at 2 h [4, 10]: 3500 µg/mL | solubility at 4 h [4, 10]: 3600 µg/mL | solubility at 24 h [4, 10]: 3500 µg/mL | solubility at 1 h [4, 11]: 2500 µg/mL | solubility at 2 h [4, 11]: 2800 µg/mL | solubility at 4 h [4, 11]: 3100 µg/mL | solubility at 24 h [4, 11]: 3100 µg/mL | solubility at 1 h [4, 12]: 220 µg/mL | solubility at 2 h [4, 12]: 210 µg/mL | solubility at 4 h [4, 12]: 230 µg/mL | solubility at 24 h [4, 12]: 210 µg/mL | solubility at 1 h [4, 13]: 110 µg/mL | solubility at 2 h [4, 13]: 130 µg/mL | solubility at 4 h [4, 13]: 140 µg/mL | solubility at 24 h [4, 13]: 150 µg/mL | moisture adsorption ([5]; 25°C/80% RH, listed as fumarate crystal form F of the compound of formula (I)): 0.3% | Water adsorption (25°C/80%RH) ([5]; 25°C/80%RH): 0.3 | Mean Body Weight at Day 0 ([6]; 1 mg/kg group): 23.9 ± 3.1 g | Body Weight Change Rate (%) ([6]; 1 mg/kg i.g. BID): 17.2% | Mean Body Weight at Dosing Endpoint ([6]; 1 mg/kg i.g. BID): 28.0 ± 2.2 g | Mean Body Weight at Day 0 ([6]; 3 mg/kg group): 24.6 ± 1.8 g | Body Weight Change Rate (%) ([6]; 3 mg/kg i.g. BID): 8.5% | Mean Body Weight at Dosing Endpoint ([6]; 3 mg/kg i.g. BID): 26.7 ± 2.2 g | Mean Body Weight at Day 0 ([6]; 10 mg/kg group): 22.4 ± 2.1 g | Body Weight Change Rate (%) ([6]; 10 mg/kg i.g. BID): 13.8% | Mean Body Weight at Dosing Endpoint ([6]; 10 mg/kg i.g. BID): 25.5 ± 1.7 g | impact on the body weight of tumor-bearing mice during the treatment period ([6]; administered doses, i.g. BID × 17 days): no significant impact | Cmax higher than that of the positive drug GDC-0449 [7]: about 1 fold | abnormal behaviors or animal deaths during the administration period [8]: no abnormal behaviors or animal deaths | AUC(0-inf) (in vivo [9]): 16700 ng·h/mL | AUC(0-t) (in vivo [9]): 7500 ng·h/mL | Cmax (in vivo [9]): 2410 ng/mL | MRT (in vivo [9]): 15.6 h | Tmax (in vivo [9]): 0.25 h | half-life (in vivo [9]): 12.4 h
